Reference: US11046697B2, “Compounds and compositions useful for treating disorders related to NTRK” (BLUEPRINT MEDICINES CORPORATION, priority 2015, dated 2021)
Like-named read-outs stand apart in the source and are kept apart here.

How the values were obtained:
[1] = biological target: T1, wild type NTRK1 enzyme (Homo sapiens, UniProt P04629); test: NTRK1 Wild Type Assay at 1 mM ATP; format: biochemical
T1 construct: purchased BPS Bioscience 40280
Method: NTRK1 Wild Type Assay at 1 mM ATP
The reaction was stopped by the addition of 70 μL of Stop buffer (100 mM HEPES pH 7.5, 0.015% Brij 35, 35 mM EDTA and 0.2% of Coating Reagent 3 (Caliper Lifesciences)). The plate was then read on a Caliper EZReader 2 (protocol settings: −1.7 psi, upstream voltage −500, downstream voltage −3000, post sample sip 35s).

[2] = test system: KM12 wild type colon carcinoma cell line harboring the TPM3-NTRK1 fusion protein; test: NTRK wild type cellular assay (CellTiter-Glo growth inhibition); format: cell-based; conditions: for IC50: 72 hr, CellTiter-Glo, read-out: KM12 (WT) IC50
Method: (§1) NTRK Wild Type and G595R Mutant Cellular Assays Protocol
(§2) KM12 wild type colon carcinoma cell line harboring the TPM3-NTRK1 fusion protein was obtained from the National Cancer Institute (NCI). This line has been previously shown to be dependent upon the NTRK activity derived from the NTRK fusion protein for growth and survival. […] Cells were first plated in 384-well plates at 1000 cells/well in complete media (10% FBS and 1% pen/strep) and incubated overnight at 37° C. Cells were then dosed with test articles at varying concentrations using the Bravo liquid handling system. […] Each compound was run in duplicate per plate. […] 72 hr after dosing, assay plates were developed using CellTiter-Glo (Promega) and resultant luminescence was read on the Envision plate reader. IC50 determinations were calculated using a 4-parameter curve fitting algorithm

[3] = test system: KM12 Cliff (G595R) cell line; test: NTRK G595R mutant cellular assay (CellTiter-Glo growth inhibition); format: cell-based; conditions: for IC50: 72 hr, CellTiter-Glo
Method: as §1, §2

[4] = 1 mM ATP, read-out: Enz NTRK1 IC50

T1 sequence (P04629 440-796 limits assumed): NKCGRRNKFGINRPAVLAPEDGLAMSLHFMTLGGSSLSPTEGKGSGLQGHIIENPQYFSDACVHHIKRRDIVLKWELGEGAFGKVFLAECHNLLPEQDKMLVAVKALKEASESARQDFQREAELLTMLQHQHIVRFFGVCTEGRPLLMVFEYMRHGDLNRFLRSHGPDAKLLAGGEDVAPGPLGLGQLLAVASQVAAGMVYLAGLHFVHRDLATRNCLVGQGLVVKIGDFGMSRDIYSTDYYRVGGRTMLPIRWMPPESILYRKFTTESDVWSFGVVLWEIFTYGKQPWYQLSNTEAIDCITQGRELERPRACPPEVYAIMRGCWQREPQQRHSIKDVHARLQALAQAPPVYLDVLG

SMILES	IC50 ([1]; wild-type NTRK enzyme, read-out: NTRK wt Enzyme Assay IC50)	GI50 ([2]; wild-type NTRK fusion cells, read-out: NTRK wt Cellular GI50)	GI50 ([3]; G595R mutant NTRK fusion cells)	IC50 [1, 4]	IC50 [2]	IC50 [3]	IC50 ([2]; Homo sapiens, KM12, 72 h)	IC50 ([3]; Homo sapiens, KM12, 72 h)
CC(C)NC(=O)C1CCC(n2c(NC(=O)c3ccc(F)cc3)nc3ccc(CN4CCC(C(C)(C)O)CC4)cc32)CC1 (stereo not drawn) [TSR-011]	2.3 nM	32 nM	12000 nM	–	–	–	–	–
O=C(c1n[nH]c2ncnc(NC3CCCC3O)c12)N1CC(F)CC1c1cncc(F)c1 (stereo not drawn) [Compound 46]	–	–	–	< 10 nM	< 10 nM	< 10 nM	–	–
O=C(c1n[nH]c2ncnc(NC3CCOCC3O)c12)N1CC(F)CC1c1cc(F)cc(F)c1 (stereo not drawn) [Compound 174]	–	–	–	< 10 nM	< 10 nM	< 10 nM	–	–
O=C(c1n[nH]c2ncnc(N[C@@H]3CC[C@@H](O)[C@H]3O)c12)N1C[C@@H](F)C[C@@H]1c1ccccc1 [Compound 144]	–	–	–	10 to 100 nM	10 to 100 nM	100 to 1000 nM	–	–
CN(Cc1cc(F)cc(C#N)c1)C(=O)c1n[nH]c2ncnc(NC3CCC(O)C3O)c12 (stereo not drawn) [Compound 44]	–	–	–	10 to 100 nM	10 to 100 nM	100 to 1000 nM	–	–
CN(Cc1cc(F)ccc1F)C(=O)c1n[nH]c2ncnc(NC3CCC(O)C3O)c12 (stereo not drawn) [Compound 28]	–	–	–	< 10 nM	10 to 100 nM	10 to 100 nM	–	–
O=C(c1n[nH]c2ncnc(N[C@@H]3CN(C4COC4)C[C@H]3O)c12)N1C[C@@H](F)C[C@@H]1c1cc(F)ccc1F [Compound 229, ((2R,4S)-2-(2,5-difluorophenyl)-4-fluoropyrrolidin-1-yl)(4-(((3R,4R)-4-hydroxy-1-(oxetan-3-yl)pyrrolidin-3-yl)amino)-1H-pyrazolo[3,4-d]pyrimidin-3-yl)methanone]	–	–	–	< 10 nM	–	–	< 10 nM	< 10 nM
CC(NC(=O)c1n[nH]c2ncnc(NC3CCC(O)C3O)c12)c1cc(F)ccc1F (stereo not drawn) [Compound 34]	–	–	–	10 to 100 nM	10 to 100 nM	100 to 1000 nM	–	–
O=C(c1n[nH]c2ncnc(N[C@@H]3CCC[C@@H](O)[C@H]3O)c12)N1C[C@@H](F)C[C@@H]1c1cc(F)ccc1F [Compound 106]	–	–	–	< 10 nM	–	–	< 10 nM	< 10 nM
O=C(NCc1cc(F)ccc1F)c1n[nH]c2ncnc(N[C@H]3[C@H](O)[C@H](O)[C@@H]4C[C@@H]43)c12 [Compound 25]	–	–	–	10 to 100 nM	–	–	10 to 100 nM	100 to 1000 nM
CN(Cc1cc(F)ccc1Cl)C(=O)c1n[nH]c2ncnc(N[C@@H]3COC[C@@H](O)[C@H]3O)c12 [Compound 162]	–	–	–	< 10 nM	–	–	10 to 100 nM	10 to 100 nM
O=C(c1n[nH]c2ncnc(N[C@@H]3CCOC[C@H]3O)c12)N1C[C@@H](F)C[C@@H]1c1cc(F)ccc1Cl [Compound 196]	–	–	–	< 10 nM	–	–	< 10 nM	< 10 nM
O=C(c1n[nH]c2ncnc(N[C@@H]3COC[C@@H](O)[C@H]3O)c12)N1C[C@@H](F)C[C@@H]1c1cc(F)ccc1OC(F)(F)F [Compound 244]	–	–	–	< 10 nM	–	–	< 10 nM	< 10 nM
C[C@@H](NC(=O)c1n[nH]c2ncnc(N[C@@H]3COCC[C@H]3O)c12)c1cc(F)ccc1F [Compound 30]	–	–	–	100 to 1000 nM	–	–	10 to 100 nM	100 to 1000 nM
O=C(c1n[nH]c2ncnc(N[C@@H]3CCC[C@H]3O)c12)N1CCC[C@@H]1c1cc(F)ccc1F [Compound 45, ((R)-2-(2,5-difluorophenyl)pyrrolidin-1-yl)(4-(((1R,2R)-2-hydroxycyclopentyl)amino)-1H-pyrazolo[3,4-d]pyrimidin-3-yl)methanone]	–	–	–	< 10 nM	–	–	< 10 nM	< 10 nM
COc1ccc(F)cc1CNC(=O)c1n[nH]c2ncnc(N[C@@H]3COCC[C@H]3O)c12 [Compound 24]	–	–	–	10 to 100 nM	–	–	100 to 1000 nM	100 to 1000 nM
COc1c(F)cc(F)cc1C1CC(F)CN1C(=O)c1n[nH]c2ncnc(NC3CCOCC3O)c12 (stereo not drawn) [Compound 218]	–	–	–	< 10 nM	< 10 nM	< 10 nM	–	–

SMILES	IC50 ([1]; wild-type NTRK enzyme, read-out: NTRK wt Enzyme Assay IC50)	GI50 ([2]; wild-type NTRK fusion cells, read-out: NTRK wt Cellular GI50)	GI50 ([3]; G595R mutant NTRK fusion cells)	IC50 [1, 4]	IC50 [2]	IC50 [3]	IC50 ([2]; Homo sapiens, KM12, 72 h)	IC50 ([3]; Homo sapiens, KM12, 72 h)
O=C(c1n[nH]c2ncnc(N[C@@H]3CCC[C@@H](O)[C@H]3O)c12)N1C[C@@H](F)C[C@@H]1c1ccccc1 [Compound 155]	–	–	–	10 to 100 nM	10 to 100 nM	10 to 100 nM	–	–
O=C(c1n[nH]c2ncnc(NC3COCC(O)C3O)c12)N1CC(F)CC1c1cccc(F)c1 (stereo not drawn) [Compound 169]	–	–	–	10 to 100 nM	10 to 100 nM	10 to 100 nM	–	–
CC(C)(O)[C@H]1C[C@@H](O)[C@H](Nc2ncnc3[nH]nc(C(=O)N4C[C@@H](F)C[C@@H]4c4cc(F)ccc4F)c23)C1 [Compound 232, ((2R,4S)-2-(2,5-difluorophenyl)-4-fluoropyrrolidin-1-yl)(4-(((1R,2R,4R)-2-hydroxy-4-(2-hydroxypropan-2-yl)cyclopentyl)amino)-1H-pyrazolo[3,4-d]pyrimidin-3-yl)methanone]	–	–	–	< 10 nM	–	–	< 10 nM	< 10 nM
CN(Cc1cc(F)cnc1Cl)C(=O)c1n[nH]c2ncnc(N[C@H]3[C@H](O)[C@H](O)[C@@H]4C[C@@H]43)c12 [Compound 159]	–	–	–	< 10 nM	–	–	10 to 100 nM	10 to 100 nM
Cc1ccc(F)cc1CN(C)C(=O)c1n[nH]c2ncnc(NC3CCC(O)C3O)c12 (stereo not drawn) [Compound 23]	–	–	–	< 10 nM	10 to 100 nM	10 to 100 nM	–	–
O=C(c1n[nH]c2ncnc(N[C@@H]3CCC[C@@H](O)[C@H]3O)c12)N1C[C@@H](F)C[C@@H]1c1cc(F)cc(F)c1F [Compound 224]	–	–	–	< 10 nM	–	–	< 10 nM	< 10 nM
O=C(c1n[nH]c2ncnc(N[C@@H]3CC[C@@H](O)[C@H]3O)c12)N1C[C@@H](F)C[C@@H]1c1cc(Cl)ccc1F [Compound 201]	–	–	–	< 10 nM	< 10 nM	< 10 nM	–	–
O=C(NCc1cc(F)ccc1Cl)c1n[nH]c2ncnc(N[C@@H]3COCC[C@H]3O)c12 [Compound 37]	–	–	–	10 to 100 nM	100 to 1000 nM	100 to 1000 nM	–	–
O=C(c1n[nH]c2ncnc(N[C@@H]3C=C[C@@H](O)[C@H]3O)c12)N1C[C@@H](F)C[C@@H]1c1cccc(F)c1F [Compound 172]	–	–	–	< 10 nM	10 to 100 nM	10 to 100 nM	–	–
O=C(c1n[nH]c2ncnc(NC3CCOCC3O)c12)N1CC(F)CC1c1cc(F)ccc1Br (stereo not drawn) [Compound 183]	–	–	–	< 10 nM	< 10 nM	< 10 nM	–	–
CN(Cc1cc(Cl)ccc1Br)C(=O)c1n[nH]c2ncnc(N[C@@H]3CCC[C@@H](O)[C@H]3O)c12 [Compound 167]	–	–	–	< 10 nM	< 10 nM	< 10 nM	–	–
N#Cc1cc(F)cc([C@H]2C[C@H](F)CN2C(=O)c2n[nH]c3ncnc(N[C@H]4[C@H](O)[C@H](O)[C@@H]5C[C@@H]54)c23)c1 [Compound 129]	–	–	–	< 10 nM	–	–	10 to 100 nM	10 to 100 nM
CN(Cc1cccc(F)c1F)C(=O)c1n[nH]c2ncnc(N[C@@H]3CC[C@@H](O)[C@H]3O)c12 [Compound 139]	–	–	–	10 to 100 nM	10 to 100 nM	10 to 100 nM	–	–
COc1c(F)cc(F)cc1CNC(=O)c1n[nH]c2ncnc(N[C@@H]3COCC[C@H]3O)c12 [Compound 54]	–	–	–	10 to 100 nM	–	–	100 to 1000 nM	100 to 1000 nM
CN(Cc1cccnc1Cl)C(=O)c1n[nH]c2ncnc(N[C@@H]3CC[C@@H](O)[C@H]3O)c12 [Compound 138]	–	–	–	100 to 1000 nM	100 to 1000 nM	100 to 1000 nM	–	–
O=C(c1n[nH]c2ncnc(NC3CC(F)CC3O)c12)N1CC(F)CC1c1cc(F)ccc1F (stereo not drawn) [Compound 95]	–	–	–	< 10 nM	–	–	< 10 nM	< 10 nM
N#Cc1cc(F)cc(C2CC(F)CN2C(=O)c2n[nH]c3ncnc(NC4COCCC4O)c23)c1 (stereo not drawn) [Compound 182]	–	–	–	< 10 nM	< 10 nM	10 to 100 nM	–	–
